Assay: GHS categories as the set defines them, by LD50: 1 up to 5, 2 up to 50, 3 up to 300, 4 up to 2000, 5 above 2000 mg/kg
Conditions: rat; in vivo; po
`CC(C)c1cc(C(C)C)c(N)c(C(C)C)c1N` showed a GHS category of 4. `O=S(=O)(O)c1cccc(Nc2nc(NCCO)nc(Nc3ccc(/C=C/c4ccc(Nc5nc(NCCO)nc(Nc6cccc(S(=O)(=O)O)c6)n5)cc4S(=O)(=O)O)c(S(=O)(=O)O)c3)n2)c1` showed a GHS category of 5. `CCCc1nc2c(C)cc(-c3nc4ccccc4n3C)cc2n1Cc1ccc(-c2ccccc2C#N)cc1` gave a GHS category of 5. Compound `NC(=O)Oc1ccc(Br)cc1C(=O)Oc1ccccc1` has a GHS category of 5. `CNc1cnn(-c2cccc(C(F)(F)F)c2)c(=O)c1Cl` gave a GHS category of 5. `O=C(OCCCc1ccccc1)c1ccccc1` gave a GHS category of 5. Work on `CCCCCCCCCCCCCCCCCC(=O)OC[C@@H](OC(=O)CCCCCCCCCCCCCCCCC)[C@H]1OC[C@H](O)[C@H]1OC(=O)CCCCCCCCCCCCCCCCC` yielded a GHS category of 5. `COC(=O)CCN[N+](C)(C)C` gave a GHS category of 3. For `OC1CCOC1` (centres undefined), the GHS category was 5. Work on `Cc1ccc(C2=NCOCS2)cc1` yielded a GHS category of 4. Compound `Cc1ccc2oc(C3(Cn4ccnc4)OCCO3)cc2c1` has a GHS category of 4. For `COCCOc1ccccc1S(=O)(=O)N=C(O)N=c1nc(OC)[nH]c(OC)n1`, the GHS category was 5. With `O=C1CCc2ccc(OCC(O)CN3CCC(c4ccccc4)CC3)cc2N1` (centres undefined) the GHS category was 4. In the case of `CC(C)=CCCC(C)=C1CC=C(C)CC1`, the GHS category is reported as 5. Work on `CN1C(C(=O)Nc2ccccn2)=C(O)c2sc(O)cc2S1(=O)=O` yielded a GHS category of 3. Compound `CCCC(C)c1ccc(OCC(=O)Cl)c(C(C)CCC)c1` (centres undefined) has a GHS category of 5. `N#CNC(=N)NCCCCCCNC(=N)NC#N` showed a GHS category of 5. `CCn1cc[n+](C)c1` showed a GHS category of 5. For `C=CC(=O)OCCN(C)S(=O)(=O)C(F)(F)C(F)(F)C(F)(F)C(F)(F)F` (racemic), the GHS category was 5. In the case of `CC1OC(Cn2cncn2)(c2cc3cc(Cl)cc(Cl)c3o2)OC1C` (centres undefined), the GHS category is reported as 4. With `CCOC(=O)OCCOc1cc(O)c2c(c1N)C(=O)c1ccccc1C2=O` the GHS category was 5. With `O=C(O)CCCCCCCCCCCC(=O)O` the GHS category was 5. In the case of `CCn1cc(C(=O)O)c(=O)c2cnc(N3CCNCC3)nc21`, the GHS category is reported as 5. `CC(C)C1=CC23CCC4C(C)(C(=O)N5CCNCC5)CCCC4(C)C2CC1C1C(=O)OC(=O)C13` (centres undefined) showed a GHS category of 5. `C/C=C/C=C/CCCCCCCO` gave a GHS category of 5. With `Cc1ccc(SCOC(Cn2ccnc2)c2ccc(Cl)cc2Cl)cc1` (centres undefined) the GHS category was 5. `O=C(O)c1cc(O)c2c3nc4ccccc4oc-3cc(=O)c2n1` gave a GHS category of 5. `CCN(Cc1cccc(S(=O)(=O)O)c1)c1ccc(C(=C2C=CC(=[N+](CC)Cc3cccc(S(=O)(=O)O)c3)C=C2)c2ccccc2S(=O)(=O)[O-])cc1` showed a GHS category of 5. In the case of `CN(C)CCOC(=O)C(c1ccccc1)C1(O)CCCC1` (centres undefined), the GHS category is reported as 5. Work on `CC(=O)c1ccc2c(c1)oc(=O)n2C` yielded a GHS category of 5. With `OC1(c2ccc(-c3ccccc3)cc2)c2ccccc2C2=NCCN21` (centres undefined) the GHS category was 4. Work on `COc1cc(C(=O)OCCCNCCC(c2ccccc2)c2ccccc2)cc(OC)c1OC` yielded a GHS category of 5. `O=C(Nc1cccc2c(=O)c3c(ccc4c5cc(NC(=O)c6ccccc6)c6c(=O)c7ccccc7c(=O)c6c5[nH]c43)c(=O)c12)c1ccccc1` gave a GHS category of 5. Work on `OC(OCC(COC(O)C(Cl)(Cl)Cl)(COC(O)C(Cl)(Cl)Cl)COC(O)C(Cl)(Cl)Cl)C(Cl)(Cl)Cl` (centres undefined) yielded a GHS category of 4. `CCCNC(=O)c1cnc2cccc(C)n2c1=O` showed a GHS category of 3. For `O=C(CCc1ccc(O)cc1)Nc1ccccc1C(=O)O`, the GHS category was 5. `Cc1cc(-n2nc3ccc(Cl)cc3n2)c(O)c(C(C)(C)C)c1` showed a GHS category of 5. `COC(=O)c1ccc(C#N)cc1[N+](=O)[O-]` gave a GHS category of 5. In the case of `CCOC(=O)C(=O)Nc1nc(-c2ccccc2)cs1`, the GHS category is reported as 5. Compound `COc1ccc(OC)c(C=O)c1` has a GHS category of 5. With `Cc1ccn2nc(S(=O)(=O)Nc3c(F)cccc3F)nc2n1` the GHS category was 5. `CC(=O)OCC1=C(C(=O)O)N2C(=O)[C@@H](NC(=O)[C@H](N)c3ccccc3)[C@H]2SC1` gave a GHS category of 5. Compound `C=CC(=O)O[Si](C(C)C)(C(C)C)C(C)C` has a GHS category of 5. Work on `CCCCC(CC)COC(=O)c1ccc(C(=O)OCC(CC)CCCC)c(C(=O)OCC(CC)CCCC)c1` (centres undefined) yielded a GHS category of 5. For `Cc1cc(C2(c3ccc(O)c(C)c3)CCCCC2)ccc1O`, the GHS category was 5. `CC12C=CC(=O)C=C1CCC1C2CCC2(C)C(O)CCC12` (centres undefined) gave a GHS category of 5. Compound `COc1ccc2cccc(CC#N)c2c1` has a GHS category of 5. `Nc1c(Oc2ccccc2)cc(O)c2c1C(=O)c1ccccc1C2=O` showed a GHS category of 5. In the case of `COc1ccc(C2c3ccc(OC)cc3CCN2c2ccccc2)cc1` (centres undefined), the GHS category is reported as 4. With `CCC[Si](OCC)(OCC)OCC` the GHS category was 5. For `OC[C@H]1O[C@@H](n2cnc3c(O)ncnc32)[C@H](O)[C@@H]1O`, the GHS category was 5. Work on `CCC1=NN(C(=O)NC(=O)c2ccc(Cl)cc2)C(C)(CC)C1` (centres undefined) yielded a GHS category of 5. `CCNC(=O)NCc1cccc(Cl)c1` gave a GHS category of 5. Work on `CCO[Si](C)(OCC)OCC` yielded a GHS category of 5.
